Data taken from US6706663B2, “Herbicidal 3-heterocyclic substituted benzisothiazole and benzisoxazole compounds” (Wyeth, priority 2000, dated 2004).

Key:
[1] = tested on: IPOHE (Ipomoea hederacea); assay: Postemergence herbicidal evaluation; type: in vivo, (L.) Jacq.
How it was run: (§1)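 Visual 0–9 injury scores versus control plants, covering stand, vigour, malformation, size, chlorosis and general appearance, taken four to five weeks post-spray and averaged over replicate tests. Plants were sprayed at roughly two weeks old and held on greenhouse benches.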

[2] = tested on: AMBEL (Ambrosia artemisifolia); assay: Postemergence herbicidal evaluation; type: in vivo, L.
How it was run: as §1

[3] = tested on: CASOB (Cassia obtusifolia); assay: Postemergence herbicidal evaluation; type: in vivo, L.
How it was run: as §1

[4] = tested on: CHEAL (Chenopodium album); assay: Postemergence herbicidal evaluation; type: in vivo, L.
How it was run: as §1

[5] = tested on: MOOVA (Monochoria vaginalis); assay: Flooded paddy, preemergence weed control; type: in vivo, Presl.; settings: rated 3-4 weeks after treatment, 0-9 rating scale
How it was run: (§2)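 Silt loam, sowing depth ≤0.5 cm; permanent flood 1.5–3 cm above soil; greenhouse culture after treatment. Readout: 0-9 visual scale (stand, vigor, malformation, size, chlorosis, appearance) vs control.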

[6] = tested on: ABUTH (Abutilon theophrasti); assay: Postemergence herbicidal evaluation; type: in vivo, Medic.
How it was run: as §1

ZEAMX (Corn, Field) = assay: Preemergence herbicidal evaluation; type: in vivo, Zea mays, L.; settings: preemergence, rated 4-5 weeks after treatment
[7] = tested on: ECHCG (Echinochloa crus-galli); assay: Preemergence herbicidal evaluation; type: in vivo, (L.) Beau; settings: preemergence, rated 4-5 weeks after treatment
How it was run: (§3)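 Visual 0-9 rating versus untreated control, taken four to five weeks post-treatment, scoring stand, vigor, malformation, size, chlorosis and overall appearance. Compound applied as aqueous acetone spray to freshly seeded soil cups, then kept under standard greenhouse care.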

SETVI (Setaria viridis) = assay: Preemergence herbicidal evaluation; type: in vivo, (L.) Beau; settings: preemergence, rated 4-5 weeks after treatment
How it was run: as §3

[8] = tested on: AMBEL (Ambrosia artemisifolia); assay: Preemergence herbicidal evaluation; type: in vivo, L.; settings: preemergence, rated 4-5 weeks after treatment
How it was run: as §3

[9] = tested on: CASOB (Cassia obtusifolia); assay: Preemergence herbicidal evaluation; type: in vivo, L.; settings: preemergence, rated 4-5 weeks after treatment
How it was run: as §3

[10] = tested on: CHEAL (Chenopodium album); assay: Preemergence herbicidal evaluation; type: in vivo, L.; settings: preemergence, rated 4-5 weeks after treatment
How it was run: as §3

[11] = tested on: ABUTH (Abutilon theophrasti); assay: Preemergence herbicidal evaluation; type: in vivo, Medic.; settings: preemergence, rated 4-5 weeks after treatment
[12] = tested on: GLXMAW (Soybean, Williams); assay: Preemergence herbicidal evaluation; type: in vivo, Glycine max, (L.) Merr. cv Williams; settings: preemergence, rated 4-5 weeks after treatment
[13] = tested on: TRZAWR (Wheat, Winter, cv Riband); assay: Preemergence herbicidal evaluation; type: in vivo, Triticum aestivum; settings: preemergence, rated 4-5 weeks after treatment
How it was run: as §3

[14] = tested on: IPOHE (Ipomoea hederacea); assay: Preemergence herbicidal evaluation; type: in vivo, (L.) Jacq.; settings: preemergence, rated 4-5 weeks after treatment
CYPIR (Cyperus iria) = assay: Flooded paddy, preemergence weed control; type: in vivo; settings: rated 3-4 weeks after treatment, 0-9 rating scale
How it was run: as §2

ORYSAT (Rice, Tebonnet) [15] = assay: Postemergence herbicidal evaluation; type: in vivo, Oryza sativa, (L.) Tebonnet
How it was run: as §1

ORYSAT (Rice, Tebonnet) [16] = assay: Flooded paddy, post-transplant rice tolerance; type: in vivo, Oryza sativa, (L.) Tebonnet; settings: flooded paddy, post-transplant rice, rated 3-4 weeks after treatment, 0-9 rating scale
How it was run: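 Seedlings aged ten days are transplanted in pairs into undrained pots of silt loam, which are then flooded to a depth of 1.5 to 3 cm. After herbicide application the pots are kept in a greenhouse with the flood maintained. Plants are rated 0-9 by visual comparison with controls.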

[17] = tested on: GLXMAW (Soybean, Williams); assay: Postemergence herbicidal evaluation; type: in vivo, Glycine max, (L.) Merr. cv Williams
How it was run: as §1

CC(=O)N1CCSC1c1nsc2ccc(-n3c(=O)cc(C(F)(F)F)n(C)c3=O)cc12 (centres unmarked) [Compound 29, 3-acetyl-2-[5-[3,6-dihydro-3-methyl-2,6-dioxo-4-(trifluoromethyl)-1(2H)-pyrimidinyl]-1,2-benzisothiazol-3-yl]thiazolidine]
Postemergence herbicidal rating, IPOHE ([1]; rate 0.0320 kg/ha): 9.0 | Postemergence herbicidal rating, IPOHE ([1]; rate 0.0620 kg/ha): 9.0 | Postemergence herbicidal rating, AMBEL ([2]; rate 0.0320 kg/ha): 9.0 | Postemergence herbicidal rating, AMBEL ([2]; rate 0.0620 kg/ha): 9.0 | Postemergence herbicidal rating, CASOB ([3]; rate 0.0320 kg/ha): 2.0 | Postemergence herbicidal rating, CASOB ([3]; rate 0.0620 kg/ha): 5.0 | Postemergence herbicidal rating, CHEAL ([4]; rate 0.0320 kg/ha): 9.0 | Postemergence herbicidal rating, CHEAL ([4]; rate 0.0620 kg/ha): 9.0 | herbicidal rating, MOOVA ([5]; rate 0.0080 kg/ha): 0.0 | herbicidal rating, MOOVA ([5]; rate 0.0320 kg/ha): 9.0 | herbicidal rating, MOOVA ([5]; rate 0.1250 kg/ha): 9.0 | Postemergence herbicidal rating, ABUTH ([6]; rate 0.0320 kg/ha): 9.0 | Postemergence herbicidal rating, ABUTH ([6]; rate 0.0620 kg/ha): 9.0 | ZEAMX preemergence herbicidal rating (ZEAMX (Corn, Field); Rate 0.0620 kg/ha): 5.5 | ZEAMX preemergence herbicidal rating (ZEAMX (Corn, Field); Rate 0.1250 kg/ha): 7.0 | ZEAMX preemergence herbicidal rating (ZEAMX (Corn, Field); Rate 0.2500 kg/ha): 7.0 | ECHCG preemergence herbicidal rating ([7]; Rate 0.0620 kg/ha): 5.5 | ECHCG preemergence herbicidal rating ([7]; Rate 0.1250 kg/ha): 6.5 | ECHCG preemergence herbicidal rating ([7]; Rate 0.2500 kg/ha): 8.0 | SETVI preemergence herbicidal rating (SETVI (Setaria viridis); Rate 0.0620 kg/ha): 6.5 | SETVI preemergence herbicidal rating (SETVI (Setaria viridis); Rate 0.1250 kg/ha): 7.5 | SETVI preemergence herbicidal rating (SETVI (Setaria viridis); Rate 0.2500 kg/ha): 9.0 | AMBEL preemergence herbicidal rating ([8]; Rate 0.0620 kg/ha): 7.0 | AMBEL preemergence herbicidal rating ([8]; Rate 0.1250 kg/ha): 8.0 | AMBEL preemergence herbicidal rating ([8]; Rate 0.2500 kg/ha): 9.0 | CASOB preemergence herbicidal rating ([9]; Rate 0.0620 kg/ha): 3.5 | CASOB preemergence herbicidal rating ([9]; Rate 0.1250 kg/ha): 6.5 | CASOB preemergence herbicidal rating ([9]; Rate 0.2500 kg/ha): 8.0 | CHEAL preemergence herbicidal rating ([10]; Rate 0.0620 kg/ha): 9.0 | CHEAL preemergence herbicidal rating ([10]; Rate 0.1250 kg/ha): 9.0 | CHEAL preemergence herbicidal rating ([10]; Rate 0.2500 kg/ha): 9.0 | ABUTH preemergence herbicidal rating ([11]; Rate 0.0620 kg/ha): 8.0 | ABUTH preemergence herbicidal rating ([11]; Rate 0.1250 kg/ha): 9.0 | ABUTH preemergence herbicidal rating ([11]; Rate 0.2500 kg/ha): 9.0 | GLXMAW preemergence herbicidal rating ([12]; Rate 0.0620 kg/ha): 6.5 | GLXMAW preemergence herbicidal rating ([12]; Rate 0.1250 kg/ha): 7.0 | GLXMAW preemergence herbicidal rating ([12]; Rate 0.2500 kg/ha): 9.0 | TRZAWR preemergence herbicidal rating ([13]; Rate 0.0620 kg/ha): 2.0 | TRZAWR preemergence herbicidal rating ([13]; Rate 0.1250 kg/ha): 8.0 | TRZAWR preemergence herbicidal rating ([13]; Rate 0.2500 kg/ha): 8.0 | IPOHE preemergence herbicidal rating ([14]; Rate 0.0620 kg/ha): 5.0 | IPOHE preemergence herbicidal rating ([14]; Rate 0.1250 kg/ha): 7.5 | IPOHE preemergence herbicidal rating ([14]; Rate 0.2500 kg/ha): 9.0 | herbicidal rating, CYPIR (CYPIR (Cyperus iria); rate 0.0080 kg/ha): 0.0 | herbicidal rating, CYPIR (CYPIR (Cyperus iria); rate 0.0320 kg/ha): 7.0 | herbicidal rating, CYPIR (CYPIR (Cyperus iria); rate 0.1250 kg/ha): 9.0 | Postemergence herbicidal rating, ORYSAT (ORYSAT (Rice, Tebonnet) [15]; rate 0.0320 kg/ha): 3.0 | Postemergence herbicidal rating, ORYSAT (ORYSAT (Rice, Tebonnet) [15]; rate 0.0620 kg/ha): 3.0 | herbicidal rating, ORYSAT (rice tolerance) (ORYSAT (Rice, Tebonnet) [16]; rate 0.0080 kg/ha): 0.0 | herbicidal rating, ORYSAT (rice tolerance) (ORYSAT (Rice, Tebonnet) [16]; rate 0.0320 kg/ha): 3.5 | herbicidal rating, ORYSAT (rice tolerance) (ORYSAT (Rice, Tebonnet) [16]; rate 0.1250 kg/ha): 7.0 | Postemergence herbicidal rating, GLXMAW ([17]; rate 0.0320 kg/ha): 7.5 | Postemergence herbicidal rating, GLXMAW ([17]; rate 0.0620 kg/ha): 8.0
